Measured values as given in PubChem BioAssay AID248 (DTP/NCI, 2004).
Toxic doses and inconclusive results are not listed. Rule as the data show it: active = T/C of 150% or more; inactive = T/C below 125%.

Test system: L1210 leukemia ip in BDF1 mice, survival T/C
Experiment: NCI In Vivo Anticancer Drug Screen. Data for tumor model L1210 Leukemia (intraperitoneal) in B6D2F1 (BDF1) mice
Conditions: endpoint: mean survival time, higher = longer survival
Outline: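 Tumor cells were implanted, animals were treated, and survival was followed. The result divides the treated measurement by the vehicle-control measurement.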

[1] = dose: 100.0 mg/kg/injection, schedule: Q01DX009 (ip), vehicle: saline with Tween-80
[2] = dose: 100.0 mg/kg/injection, schedule: Q04DX003 (ip), vehicle: saline with Tween-80
[3] = dose: 200.0 mg/kg/injection, schedule: Q01DX009 (ip), vehicle: saline with Tween-80
[4] = dose: 200.0 mg/kg/injection, schedule: Q04DX003 (ip), vehicle: saline with Tween-80
[5] = dose: 400.0 mg/kg/injection, schedule: Q01DX009 (ip), vehicle: saline with Tween-80
[6] = dose: 400.0 mg/kg/injection, schedule: Q04DX003 (ip), vehicle: saline with Tween-80
[7] = dose: 100.0 mg/kg/injection, schedule: Q01DX009 (ip), vehicle: saline
[8] = dose: 100.0 mg/kg/injection, schedule: Q04DX003 (ip), vehicle: saline
[9] = dose: 200.0 mg/kg/injection, schedule: Q01DX009 (ip), vehicle: saline
[10] = dose: 200.0 mg/kg/injection, schedule: Q04DX003 (ip), vehicle: saline
[11] = dose: 400.0 mg/kg/injection, schedule: Q01DX009 (ip), vehicle: saline
[12] = dose: 400.0 mg/kg/injection, schedule: Q04DX003 (ip), vehicle: saline
[13] = dose: 50.0 mg/kg/injection, schedule: Q01DX009 (ip), vehicle: saline
[14] = dose: 50.0 mg/kg/injection, schedule: Q01DX001 (ip), vehicle: saline
[15] = dose: 100.0 mg/kg/injection, schedule: Q01DX001 (ip), vehicle: saline
[16] = dose: 200.0 mg/kg/injection, schedule: Q01DX001 (ip), vehicle: saline
[17] = dose: 100.0 mg/kg/injection, schedule: Q04DX002 (ip), vehicle: saline
[18] = dose: 200.0 mg/kg/injection, schedule: Q04DX002 (ip), vehicle: saline
[19] = dose: 400.0 mg/kg/injection, schedule: Q04DX002 (ip), vehicle: saline
[20] = dose: 50.0 mg/kg/injection, schedule: Q01DX009 (ip), vehicle: Klucel (hydroxypropylcellulose) (HPC)
[21] = dose: 100.0 mg/kg/injection, schedule: Q01DX009 (ip), vehicle: Klucel (hydroxypropylcellulose) (HPC)
[22] = dose: 100.0 mg/kg/injection, schedule: Q04DX003 (ip), vehicle: Klucel (hydroxypropylcellulose) (HPC)
[23] = dose: 200.0 mg/kg/injection, schedule: Q01DX009 (ip), vehicle: Klucel (hydroxypropylcellulose) (HPC)
[24] = dose: 200.0 mg/kg/injection, schedule: Q04DX003 (ip), vehicle: Klucel (hydroxypropylcellulose) (HPC)
[25] = dose: 400.0 mg/kg/injection, schedule: Q01DX009 (ip), vehicle: Klucel (hydroxypropylcellulose) (HPC)
[26] = dose: 400.0 mg/kg/injection, schedule: Q04DX003 (ip), vehicle: Klucel (hydroxypropylcellulose) (HPC)
[27] = dose: 400.0 mg/kg/injection, schedule: Q01DX001 (ip), vehicle: saline
[28] = dose: 50.0 mg/kg/injection, schedule: Q04DX002 (ip), vehicle: Klucel (hydroxypropylcellulose) (HPC)
[29] = dose: 100.0 mg/kg/injection, schedule: Q04DX002 (ip), vehicle: Klucel (hydroxypropylcellulose) (HPC)
[30] = dose: 200.0 mg/kg/injection, schedule: Q04DX002 (ip), vehicle: Klucel (hydroxypropylcellulose) (HPC)
[31] = dose: 400.0 mg/kg/injection, schedule: Q04DX002 (ip), vehicle: Klucel (hydroxypropylcellulose) (HPC)

Measured: T/C

CCCCCCCC/C=C\CCCCCCCC(=O)OC
inactive: [1] 91 % of control | [2] 96 % of control | [3] 92 % of control | [4] 100 % of control | [5] 95 % of control | [6] 98 % of control

CNCCc1cc2c(c(OC)c1/C=C/C(=O)/C=C/c1c(CCNC)cc3c(c1OC)OCO3)OCO2
inactive: dose: 75.0 mg/kg/injection, schedule: Q01DX001 (ip), vehicle: carboxymethylcellulose (CMC) 100 % of control | dose: 150.0 mg/kg/injection, schedule: Q01DX001 (ip), vehicle: carboxymethylcellulose (CMC) 100 % of control

Nc1ccc(Nc2ccccc2)c(S(=O)(=O)O)c1
inactive: [7] 107 % of control | [8] 105 % of control | [9] 107 % of control | [10] 92 % of control | [11] 110 % of control | [12] 95 % of control

COc1cccc(/C=N\O)c1
inactive: [13] 98 % of control | dose: 50.0 mg/kg/injection, schedule: Q04DX003 (ip), vehicle: saline 95 % of control | [7] 100 % of control | [8] 95 % of control | [9] 96 % of control | [10] 101 % of control | [11] 95 % of control | [12] 95 % of control

Cc1ccc(S(=O)(=O)N/N=C/C(C)(C)C(C)C)cc1
inactive: [2] 108 % of control | [4] 97 % of control | [6] 98 % of control

CCCCOCCN
inactive: dose: 12.5 mg/kg/injection, schedule: Q01DX009 (ip), vehicle: saline 104 % of control | dose: 25.0 mg/kg/injection, schedule: Q01DX009 (ip), vehicle: saline 101 % of control | [13] 106 % of control

O=C(N/N=C\c1cc(=O)[nH]c(=O)[nH]1)c1ccncc1
inactive: [14] 90 % of control | [15] 95 % of control | [16] 95 % of control

COC1OC(CCl)C(O)C(O)C1O (stereo not given)
inactive: [17] 98 % of control | [2] 93 % of control | [18] 103 % of control | [4] 100 % of control | [19] 106 % of control | [6] 89 % of control

c1ccc(C(c2cccc3ccccc23)N2CCCCC2)cc1 (stereo not given)
inactive: [1] 94 % of control | [2] 108 % of control | [3] 97 % of control | [4] 96 % of control | [5] 95 % of control | [6] 102 % of control

Nc1[nH]c(=S)nc2c1ncn2C1CCCC1
inactive: dose: 100.0 mg/kg/injection, schedule: Q01DX001 (ip), vehicle: other 93 % of control | dose: 200.0 mg/kg/injection, schedule: Q01DX001 (ip), vehicle: other 93 % of control

COC(=O)CN(c1ccc(C#N)c2ccccc12)S(=O)(=O)c1ccccc1
inactive: [2] 94 % of control | [4] 96 % of control | [6] 94 % of control

CC(C)(C)c1ccc(SSc2ccc(C(C)(C)C)cc2)cc1
inactive: [20] 94 % of control | [21] 94 % of control | [22] 94 % of control | [23] 98 % of control | [24] 91 % of control | [25] 96 % of control | [26] 92 % of control

O=C(/C=C/C(=O)Nc1cccc(C2=NCCN2)c1)Nc1cccc(C2=NCCN2)c1
inactive: dose: 3.75 mg/kg/injection, schedule: Q01DX Z (ip), vehicle: carboxymethylcellulose (CMC) 94 % of control | dose: 7.5 mg/kg/injection, schedule: Q01DX Z (ip), vehicle: carboxymethylcellulose (CMC) 94 % of control | dose: 15.0 mg/kg/injection, schedule: Q01DX Z (ip), vehicle: carboxymethylcellulose (CMC) 94 % of control

CCNc1nc2c(N)ncnc2n1C1CC(O)C(CO)O1 (stereo not given)
inactive: dose: 100.0 mg/kg/injection, schedule: Q01DX001 (ip), vehicle: carboxymethylcellulose (CMC) 96 % of control | dose: 200.0 mg/kg/injection, schedule: Q01DX001 (ip), vehicle: carboxymethylcellulose (CMC) 98 % of control | dose: 400.0 mg/kg/injection, schedule: Q01DX001 (ip), vehicle: carboxymethylcellulose (CMC) 93 % of control

Cc1cc(N(CCCl)CCCl)ccc1C=Nc1ccccc1C(=O)O
inactive: [14] 94 % of control | [20] 106 % of control | dose: 100.0 mg/kg/injection, schedule: Q01DX001 (ip), vehicle: Klucel (hydroxypropylcellulose) (HPC) 94 % of control | [15] 105 % of control | [21] 113 % of control | dose: 200.0 mg/kg/injection, schedule: Q01DX001 (ip), vehicle: Klucel (hydroxypropylcellulose) (HPC) 103 % of control | [16] 103 % of control | [23] 120 % of control | dose: 400.0 mg/kg/injection, schedule: Q01DX001 (ip), vehicle: Klucel (hydroxypropylcellulose) (HPC) 101 % of control | [27] 105 % of control | [25] 98 % of control

CN(C)C(=S)S
inactive: [14] 100 % of control | [28] 103 % of control | [15] 100 % of control | [29] 103 % of control | [16] 100 % of control | [30] 100 % of control | [27] 100 % of control | [31] 96 % of control

CCOC(=O)c1[nH]cnc1N
inactive: [15] 96 % of control | [16] 94 % of control | [27] 96 % of control

BrP(Nc1cccc(NP(Br)(c2ccccc2)(c2ccccc2)c2ccccc2)c1)(c1ccccc1)(c1ccccc1)c1ccccc1
inactive: dose: 10.0 mg/kg/injection, schedule: Q01DX001 (ip), vehicle: saline 99 % of control | dose: 20.0 mg/kg/injection, schedule: Q01DX001 (ip), vehicle: saline 99 % of control

O=C(NCCCl)NC1OCC(O)C(O)C1O (stereo not given)
inactive: [15] 112 % of control | [16] 97 % of control | [27] 103 % of control

O=S(=O)(Cc1ccccc1)CS(=O)(=O)Cc1ccccc1
inactive: dose: 75.0 mg/kg/injection, schedule: Q04DX003 (ip), vehicle: saline 92 % of control | [2] 106 % of control | dose: 150.0 mg/kg/injection, schedule: Q04DX003 (ip), vehicle: saline 90 % of control | [4] 112 % of control | dose: 300.0 mg/kg/injection, schedule: Q04DX003 (ip), vehicle: saline 87 % of control | [6] 98 % of control

CCc1cccc(CC)c1NC(=O)Nc1ccccc1F
inactive: dose: 100.0 mg/kg/injection, schedule: Q01DX009 (ip), vehicle: other 91 % of control | dose: 200.0 mg/kg/injection, schedule: Q01DX009 (ip), vehicle: other 102 % of control | dose: 400.0 mg/kg/injection, schedule: Q01DX009 (ip), vehicle: other 105 % of control

CCCCOP(=O)(OCCCC)C(=O)N(CC)CC
inactive: [22] 112 % of control | [24] 101 % of control | [26] 93 % of control

OCC(O)C(O)C(O)C1COC(CBr)O1 (stereo not given)
inactive: [29] 90 % of control | [30] 93 % of control | [31] 108 % of control

O=S(=O)(O)Cc1ccc(Cl)cc1Cl
inactive: [17] 95 % of control | [18] 103 % of control | [19] 116 % of control

c1cc[c]([Ge]([c]2ccccc2)[c]2ccccc2)cc1.c1ccc([Si](c2ccccc2)c2ccccc2)cc1
inactive: dose: 25.6 mg/kg/injection, schedule: Q04DX002 (ip), vehicle: saline with Tween-80 86 % of control | dose: 64.0 mg/kg/injection, schedule: Q04DX002 (ip), vehicle: saline with Tween-80 110 % of control | dose: 160.0 mg/kg/injection, schedule: Q04DX002 (ip), vehicle: saline with Tween-80 100 % of control | dose: 400.0 mg/kg/injection, schedule: Q04DX002 (ip), vehicle: saline with Tween-80 100 % of control

O=C(NC(C(=O)c1ccccc1)c1ccccc1)c1ccccc1 (stereo not given)
inactive: [28] 98 % of control | [21] 86 % of control | [29] 92 % of control | [30] 106 % of control | [25] 101 % of control
